Experiments:
[1] = target: human recombinant dopamine D3 receptor (Homo sapiens (Human), UniProt P35462); experiment: Test of binding inhibition for the human dopamine D3 receptor ([3H]-Metylspiperone SPA binding); conditions: [3H]-Metylspiperone 2 nM, Jump-In HEK cell membranes, read-out: hD3_Ki
Experimental: Cell membranes: Jump-In HEK cell membranes expressing human recombinant dopamine D3 receptor (4 μg/well)
(§1) Non-specific ligand: (final concentration) 10 μM Butaclamol [(+)-Butaclamol Hydrochioride, D033, Sigma]
(§2) SPA beads: SPA beads [WGA PVT SPA Scintillatiion Beads, RPNQ0001 (500 mg), RPNQ0060 (2 g), PerkinElmer] (0.2 mg/well)
(§3) Incubation time and temperature: 120 min at 25° C.
(§4) Butaclamol or the compounds of the present invention were weighed and DMSO was added to make a 10 mM solution. This solution was diluted to each concentration.
[^3H]-Metylspiperone was weighed and the buffer solution was added to make a 6 nM solution.
(§5) SPA beads were weighed and stirred in water to make a 50 mg/mL solution. Using this solution, a mixed solution with the cell membranes was prepared.
Jump-In HEK Cell membranes (final reaction amount: 4 μg/well), SPA beads (final reaction amount: 0.2 mg/well) and Tris-HCl buffer were mixed and the mixed solution was left still for more than 60 min at 4° C. Then, 50 μL of the mixture was added to each well of the plate. In addition, 25 μL of 6 nM [^3H]-Metylspiperone (final concentration: 2 nM) was added to each well. […] Non-specific binding was calculated based on the radioactivity of [^3H]-Metylspiperone in the presence of 10 μM non-labeled Butaclamol. The total binding was calculated based on the radioactivity of [^3H]-Metylspiperone in the absence of the compounds of the present invention (Vehicle). The Ki values were calculated from dose-response curves.
(§6) Binding activities of the compounds of the present invention were calculated from the following Binding Inhibition Rate (%): Inhibition Rate (%)=[1−(c−a)(b−a)]×100(%) • a: Average cpm of non-specific binding • b: Average cpm of total binding • c: Cpm in the presence of each test compound

[2] = target: human recombinant dopamine D2 receptor (Homo sapiens (Human), UniProt P14416); experiment: Test of binding inhibition for the human dopamine D2 receptor ([3H]-Metylspiperone SPA binding); conditions: [3H]-Metylspiperone 1.2 nM, Jump-In HEK cell membranes, read-out: hD2_Ki
Chain of human recombinant dopamine D2 receptor (P14416 whole entry): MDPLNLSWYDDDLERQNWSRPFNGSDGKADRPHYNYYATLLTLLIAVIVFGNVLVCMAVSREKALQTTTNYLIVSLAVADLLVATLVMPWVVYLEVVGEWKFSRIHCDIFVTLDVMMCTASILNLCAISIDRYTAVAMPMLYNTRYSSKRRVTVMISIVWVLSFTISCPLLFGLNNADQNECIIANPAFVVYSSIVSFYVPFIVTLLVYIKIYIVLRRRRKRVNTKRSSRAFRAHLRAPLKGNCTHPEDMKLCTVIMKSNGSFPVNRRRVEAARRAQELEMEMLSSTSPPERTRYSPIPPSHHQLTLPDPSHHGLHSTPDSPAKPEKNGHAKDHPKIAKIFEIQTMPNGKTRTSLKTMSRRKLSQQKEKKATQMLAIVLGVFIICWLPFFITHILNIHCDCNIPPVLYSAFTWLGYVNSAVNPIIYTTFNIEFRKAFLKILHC
Experimental: Cell membranes: Jump-In HEK cell membranes expressing human recombinant dopamine D2 receptor (2 μg/well)
Buffer solution: 50 mM Tris-HCl (35409-45, Nacalai Tesque) (pH 7.4) containing 120 mM NaCl (31320-05, Nacalai Tesque), 1 mM MgCl2.6H2O (20909-55, Nacalai Tesque), 5 mM KCl (28514-75, Nacalai Tesque) and 2 mM CaCl2 (067-31, Nacalai Chemical, Ltd)
Radioligand: (final concentration) 1.2 nM [^3H]-Metylspiperone ([^3H—N-methyl-]-Metylspiperone, NET-856, 83.8 Ci/mmol, PerkinElmer)
as §1, §2, §3, §4
[^3H]-Metylspiperone was weighed and the buffer solution was added to make a 3.6 nM solution.
as §5
225 nL of the solutions of the non-specific ligand or the compounds of the present invention at each concentration (in case of vehicle, final concentration 0.3% DMSO) were added in each well of a 384-well white/clear bottom microplate (3706, Corning). Jump-In HEK Cell membranes (final reaction amount: 2 μg protein/well), SPA beads (final reaction amount: 0.2 mg/well) and the buffer were mixed and the mixed solution was left still for more than or equal to 1 h at 4° C. Then, 50 μL of the mixture was added to each well of the plate. In addition, 25 μL of 3.6 nM [^3H]-Metylspiperone (final concentration: 1.2 nM) was added to each well. The plate was sealed by putting TopSeal-A 96/384 well (6050185, PerkinElmer) on the top of the plate, mixed using stirring deaerator (Welltornado, FK-62, Sakaki) and incubated for 120 min at 25° C. After incubation, the radioactivity of [^3H]-Metylspiperone which was binded to D2 receptor was determined by liquid scintillation counter (1450 Microbeta, PerkinElmer) in each well. Non-specific binding was calculated based on the radioactivity of [^3H]-Metylspiperone in the presence of 10 μM non-labeled Butaclamol. The total binding was calculated using the radioactivity of [^3H]-Metylspiperone in the absence of the compounds of the present invention (Vehicle). The Ki values were calculated from dose-response curves.
as §6

Chain of human recombinant dopamine D3 receptor (P35462 whole entry): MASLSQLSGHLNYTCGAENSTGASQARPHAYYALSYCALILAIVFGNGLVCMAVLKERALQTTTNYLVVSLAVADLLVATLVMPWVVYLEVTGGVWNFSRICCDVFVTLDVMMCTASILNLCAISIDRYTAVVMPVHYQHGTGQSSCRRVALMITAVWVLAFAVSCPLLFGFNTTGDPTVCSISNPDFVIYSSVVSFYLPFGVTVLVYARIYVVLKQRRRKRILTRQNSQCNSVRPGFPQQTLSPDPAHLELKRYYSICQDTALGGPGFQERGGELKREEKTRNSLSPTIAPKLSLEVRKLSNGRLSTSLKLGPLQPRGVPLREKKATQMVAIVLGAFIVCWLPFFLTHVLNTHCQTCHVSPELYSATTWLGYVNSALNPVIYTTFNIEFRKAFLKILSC

Structure (SMILES) | Ki [1] [nM] | Ki [2] [nM]
CN1Cc2c(C(=O)N[C@H]3CC[C@H](CCN4CCc5sc(OCC(F)(F)F)nc5C4)CC3)cccc2C1=O [III-610] | 0.077 | 330
Cc1ncc(CC(=O)N[C@H]2CC[C@H](CCN3CCc4nc(N(C)CC(F)(F)F)sc4CC3)CC2)s1 [II-084] | – | 510
Cn1cc2c(C(=O)N[C@H]3CC[C@H](CCN4CCc5nc(OC6CC(F)(F)C6)sc5CC4)CC3)cccc2n1 [III-244] | 0.24 | > 1900
Cc1ncc(CC(=O)N[C@H]2CC[C@H](CCN3CCc4cc(C)c(OCC(F)F)nc4CC3)OC2)s1 [III-008] | 0.25 | 480
CC(C)Oc1ccc2c(n1)CCN(CC[C@H]1CC[C@H](NC(=O)c3cccc4nn(C)cc34)CC1)CC2 [II-050] | 0.51 | > 1800
Cc1cc(CC(=O)N[C@H]2CC[C@H](CCN3CCc4nc(OCC(F)(F)F)sc4CC3)OC2)on1 [III-171] | 0.47 | > 1700
Cn1cc2c(C(=O)N[C@H]3CC[C@H](CCN4CCc5ccc(OCC(C)(F)F)nc5CC4)CC3)cccc2n1 [III-027] | – | 330
Cc1cnc(CC(=O)N[C@H]2CC[C@H](CCN3CCc4ccc(OCC(F)(F)F)nc4CC3)OC2)o1 [III-234] | 0.77 | 460
Cn1cc2c(C(=O)NC3CC4(CC(CCN5CCc6sc(OCC(C)(F)F)nc6C5)C4)C3)cccc2n1 (single isomer, unassigned) [III-624] | 0.092 | 400
Cn1cc2c(C(=O)N[C@H]3CC[C@H](CCN4CCc5sc(CCC(F)F)nc5C4)CC3)cccc2n1 [III-685] | 0.1 | 280
Cn1ncc(CC(=O)N[C@H]2CC[C@H](CCN3CCc4sc(OCC(C)(F)F)nc4C3)CC2)c1F [III-548] | 0.46 | 830
O=C(CCC(F)(F)F)N[C@H]1CC[C@H](CCN2CCc3sc(N4CC(F)(F)C4)nc3C2)CC1 [III-580] | 0.25 | 540
Cc1nc(CC(=O)N[C@H]2CC[C@](F)(CCN3CCc4nc(OCC(F)(F)F)sc4CC3)CC2)no1 [III-264] | 0.25 | > 1800
Cc1cc(CC(=O)N[C@H]2CC[C@H](CCN3CCc4nc(OCC(F)F)sc4CC3)CC2)no1 [III-282] | 0.82 | –
Cc1nc(CC(=O)N[C@H]2CC[C@H](CCN3CCc4sc(N5CC(F)(F)C5)nc4C3)CC2)no1 [III-512] | 0.9 | 1100
Cc1ncc(/C=C/C(=O)N[C@H]2CC[C@H](CCN3CCc4nc(OCC(F)(F)F)sc4CC3)CC2)cn1 [II-048] | 0.82 | > 1700
Cc1ncc(OCC(=O)N[C@H]2CC[C@](F)(CCN3CCc4nc(OCC(F)(F)F)sc4CC3)CC2)cn1 [III-254] | 0.43 | 570
CCCOc1nc2c(s1)CCN(CC[C@H]1CC[C@H](NC(=O)c3cccc4nn(C)cc34)CC1)C2 [III-544] | 0.55 | > 1700
Cc1ncc(/C=C/C(=O)N[C@H]2CC[C@H](CCN3CCc4nc(OCC(F)F)sc4CC3)CC2)s1 [III-274] | 0.12 | 140
Cn1cc(CC(=O)N[C@H]2CC[C@H](CCN3CCc4nc(OCC(F)(F)F)sc4CC3)CC2)cn1 [III-037] | 0.2 | –
COc1cc(CC(=O)N[C@H]2CC[C@H](CCN3CCc4nc(OCC(F)(F)F)sc4CC3)OC2)on1 [III-199] | 0.2 | –
Cc1nc(CC(=O)N[C@H]2CC[C@H](CCN3CCc4ccc(OCC(C)(F)F)nc4CC3)CC2)no1 [III-019] | 0.14 | –

Further lines, results first:

Ki [1] [nM] | Ki [2] [nM] | Structure (SMILES)
0.16 | 330 | Cc1cc2c(C(=O)N[C@H]3CC[C@H](CCN4CCc5ccc(OCC(F)(F)F)nc5CC4)OC3)cccn2n1 [III-228]
0.84 | > 1900 | Cc1ncc(CC(=O)N[C@H]2CC[C@H](CCN3CCc4ccc(N5CC(F)(F)C5)nc4CC3)CC2)s1 [II-066]
0.43 | 590 | Cc1ncccc1C(=O)N[C@H]1CC[C@](F)(CCN2CCc3nc(OCC(F)(F)F)sc3CC2)CC1 [III-252]
0.4 | 380 | Cc1cc2c(C(=O)N[C@H]3CC[C@H](CCN4CCc5nc(OCC(F)(F)F)sc5CC4)OC3)cccn2n1 [III-169]
0.08 | > 1700 | O=C(N[C@H]1CC[C@H](CCN2CCc3sc(N4CC5CC5C4)nc3C2)CC1)c1cccc2ncccc12 (stereo partly drawn) [Compound I-073]
0.45 | 410 | Cc1nnc(CC(=O)N[C@H]2CC[C@](F)(CCN3CCc4ccc(OCC(F)(F)F)nc4CC3)CC2)o1 [III-082]
9.6 | 1500 | O=C(N[C@H]1CO[C@H](CCN2CCc3sc(OCC(F)(F)F)nc3C2)OC1)OCc1ccccc1 [III-659]
0.096 | 740 | Cc1ncc(CC(=O)N[C@H]2CC[C@H](CCN3CCc4nc(OCC(F)(F)F)sc4CC3)CC2)o1 [II-085]
0.7 | 490 | Cc1ncc(CC(=O)N[C@H]2CC[C@H](CCN3CCc4ccc(OCC(F)(F)F)nc4CC3)OC2)o1 [III-231]
1.6 | > 1900 | Cn1cc2c(C(=O)N[C@H]3CC[C@H](C(O)CN4CCc5ccc(OCC(F)(F)F)nc5CC4)CC3)cccc2n1 (stereo partly drawn) [III-248]
0.25 | > 1700 | Cn1cc2c(C(=O)N[C@H]3CC[C@H](CCN4CCc5ccc(OC6CC(F)(F)C6)nc5CC4)CC3)cccc2n1 [III-155]
0.11 | 1100 | O=C(NCCCCN1CCc2ccc(OCC(F)(F)F)nc2CC1)c1cc2ccccc2[nH]1 [II-105]
7.9 | > 1700 | O=C(N[C@H]1CC[C@H](CCN2CCc3cnc(CC4CC4)nc3C2)CC1)c1cccc2ncccc12 [Compound I-133]
0.12 | 1300 | Cc1ncc(CC(=O)N[C@H]2CC[C@H](CCN3CCc4nc(OCC(C)(F)F)sc4CC3)CC2)o1 [II-029]
0.81 | 670 | Cc1ncc(OCC(=O)N[C@H]2CC[C@H](CCN3CCc4nc(OCC(F)(F)F)sc4CC3)OC2)cn1 [III-165]
0.5 | 1300 | Cn1cc2c(C(=O)NN3CCC(CCN4CCc5sc(OCC(F)(F)F)nc5C4)CC3)cccc2n1 [III-661]
0.73 | > 1700 | Cn1cc2c(C(=O)N[C@H]3CC[C@H](CCN4CCc5nc(OCC(C)(C)F)sc5CC4)CC3)cccc2n1 [III-076]
2.6 | > 1900 | O=C(N[C@H]1CC[C@H](CCN2CCc3sc(Br)nc3C2)CC1)c1cccc2ncccc12 [Compound I-003]
0.44 | 79 | CC(F)(F)COc1nc2c(s1)CCN(CC[C@H]1CC[C@H](NS(=O)(=O)c3cccc(F)c3)CC1)C2 [III-576]
25 | > 1800 | O=C(N[C@H]1CC[C@H](CCN2CCc3nc(OCC(F)F)ncc3C2)CC1)c1cccc2ncccc12 [Compound I-136]
0.44 | 820 | Cc1ncc(CC(=O)N[C@H]2CC[C@](F)(CCN3CCc4nc(OCC(C)(F)F)sc4CC3)CC2)s1 [II-070]
– | 810 | Cc1cc(OCC(=O)N[C@H]2CC[C@H](CCN3CCc4sc(N5CC(F)(F)C5)nc4C3)CC2)no1 [III-581]
– | 730 | Cc1ncc(CC(=O)N[C@H]2CC[C@H](CCN3CCc4nc(OCC(F)(F)F)sc4CC3)CC2)s1 [II-053]
0.56 | – | Cc1ncccc1C(=O)N[C@H]1CC[C@H](CCN2CCc3nc(OCC(F)(F)F)sc3CC2)OC1 [III-182]
– | > 1700 | COc1cc(CC(=O)N[C@H]2CC[C@H](CCN3CCc4sc(N5CC(F)(F)C5)nc4C3)CC2)on1 [III-578]

Source: patent publication US10870660B2, “Nitrogen-containing condensed ring compounds having dopamine D3 antagonistic effect” (Shionogi & Co., Ltd., priority 2016, dated 2020)
